Test results from BigSolDB 2.1.

COc1cc(/C=C/C(=O)CC(=O)/C=C/c2ccc(O)c(OC)c2)ccc1O
solubility (mole fraction)
Settings | 278.15 K | 283.15 K | 288.15 K | 293.15 K | 298.15 K | 303.15 K | 308.15 K | 313.15 K | 318.15 K
in ethanol | 0.000407 | 0.000497 | 0.000573 | 0.000662 | 0.000769 | 0.000888 | 0.00101 | 0.00113 | 0.00128
in isopropanol | 0.00146 | 0.0017 | 0.00194 | 0.00219 | 0.00252 | 0.00284 | 0.00317 | 0.00357 | 0.004
in n-propanol | 0.0023 | 0.0026 | 0.00291 | 0.00325 | 0.0036 | 0.00401 | 0.00437 | 0.00484 | 0.00526
in propylene glycol | 0.000715 | 0.000827 | 0.000967 | 0.0011 | 0.00126 | 0.00143 | 0.00161 | 0.00182 | 0.00206
in water | 8.34e-09 | 1.16e-08 | 1.59e-08 | 2.15e-08 | 2.94e-08 | 4.03e-08 | 5.38e-08 | 7.06e-08 | 9.32e-08
